Results from US20140155415A1, “BENZ[…] BENZODIOXINE COMPOUNDS THAT INTERACT WITH G[…] FOR THE TREATMENT OF DIABETES” (priority 2011, published 2014).

How the values were obtained:
[1] = molecular target: T1, GK-GKRP (glucokinase / glucokinase regulatory protein) (Homo sapiens, UniProt Q14397); experiment: GKRP LC MS/MS Biochemical Assay (LCMS/MS); details: formation of 13C-glucose-6-phosphate from 13C-glucose by LC MS/MS, human His-hepatic GK, fructose-6-phosphate
T1 sequence (Q14397 1-625): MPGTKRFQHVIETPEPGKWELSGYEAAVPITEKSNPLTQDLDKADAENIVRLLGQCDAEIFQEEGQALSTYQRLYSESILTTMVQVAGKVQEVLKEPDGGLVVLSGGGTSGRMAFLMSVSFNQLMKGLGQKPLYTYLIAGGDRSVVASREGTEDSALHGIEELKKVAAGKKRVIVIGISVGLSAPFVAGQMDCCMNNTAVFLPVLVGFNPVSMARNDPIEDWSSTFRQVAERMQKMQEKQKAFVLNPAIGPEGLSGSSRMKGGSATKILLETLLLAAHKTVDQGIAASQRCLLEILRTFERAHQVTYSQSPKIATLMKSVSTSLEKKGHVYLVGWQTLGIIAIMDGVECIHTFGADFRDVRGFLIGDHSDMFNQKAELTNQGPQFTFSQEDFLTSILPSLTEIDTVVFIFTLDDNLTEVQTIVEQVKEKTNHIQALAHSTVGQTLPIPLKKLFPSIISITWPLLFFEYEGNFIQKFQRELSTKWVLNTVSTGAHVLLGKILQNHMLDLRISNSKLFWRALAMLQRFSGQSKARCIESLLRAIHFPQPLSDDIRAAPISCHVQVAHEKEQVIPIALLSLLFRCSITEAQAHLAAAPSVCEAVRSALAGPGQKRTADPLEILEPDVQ
Procedure: GKRP LC MS/MS Biochemical Assay (LCMS/MS)
This assay is used to directly measure the formation of ^13C-glucose-6-phosphate from ^13C-glucose by LC MS/MS. Begin by preparing the following solutions: Compound Buffer (CB): 50 mM Tris, pH 7.5/4 mM MgCl2/6% DMSO/fresh 10 mM DTT from 1M frozen stock. Enzyme Buffer (EB): 50 mM Tris, pH 7.5/4 mM MgCl2/6% DMSO/fresh 0.1% BSA/fresh 0.01% Brij-35 (10% BSA and 1% Brij-35 stock). GK (Glucokinase) Working Stock (5×): Dilute human His-hepatic GK to 30 nM in EB buffer. […] Seal the plate and incubate for 30 minutes at room temperature while mixing. After 30 minutes add 10 μl of GK Working Stock (5×). Re-seal the plate and incubate for another 30 minutes at room temperature while mixing. After the second 30 minutes, stop the reaction by the addition of 50 μl of 100% acetonitrile, seal, and mix for 5-10 minutes. Run 10 μl of this sample through the LC MS/MS (API 3200, Applied Biosystems, Carlsbad, Calif.). […]
(§1) In the Examples, the assays are referred to as “LCMS/MS” or “Binding.”

[2] = molecular target: T2, GK-GKRP (interaction between glucokinase and glucokinase regulatory protein) (Homo sapiens, UniProt Q14397); experiment: GK-GKRP Binding Assay (Binding), AlphaScreen; details: avi-tagged GKRP, GK-fluorescein, AlphaScreen beads, 1 μM sorbitol-6-phosphate; read-out: GK-GKRP IC50 (Binding)
T2 construct: made in house; host or cells: GKRP: baculovirus system
T2 sequence (Q14397 1-625): T1 sequence (Q14397 1-625)
Procedure: GK-GKRP Binding Assay Protocol (Binding)
This assay is used to directly measure the interaction between glucokinase (GK) and glucokinase regulatory protein (GKRP). Begin by preparing the following solutions. Assay Buffer: 20 mM Tris, pH 7.5/0.05% BSA/1 mM DTT/1 μM sorbitol-6-phosphate. […] Combine the following reagents in a white 96-well half area plate. Pipette 14 μl of the diluted avi-tagged GKRP into each well. Add 1 μl of compound to be tested and incubate at room temperature for 20 minutes. After 20 minutes, add 5 μl of assay buffer containing 6 nM GK-fluorescein. […] Incubate in a dark room for 2 hours at room temperature. After 2 hours read the plate using an Envision plate reader (Perkin Elmer, Waltham Mass.).
Recombinant human glucokinase (hepatic) was purified and formulated in 50 mM Tris (pH 7.5), 150 mM NaCl and 20 mM glucose previous to labeling with fluorescein. […] Unreacted dye was removed by extensive dialysis into the final formulation buffer: 25 mM Tris (pH 7.2), 150 mM NaCl, 10% glycerol and 2 mM DTT. The human glucokinase regulatory protein construct was designed with a C-terminal avitag and was expressed in a baculovirus system. Purified GKRP was incubated overnight with recombinant biotin ligase in the presence of D-biotin, ATP and MgCl2. GKRP was isolated from reaction components by chromatography on a Superdex 200 size exclusion column into: 50 mM HEPES, 150 mM NaCl and 5 mM DTT. […] Proteins were quantitated according to their calculated molar extinction coefficients at A280 and were stored at −80° C.
as §1

Row | SMILES | EC50 [1] [nM] | IC50 [2] [nM]
1 | O=S(=O)(NC(c1ccccc1)c1nc2ccccc2o1)c1ccc2c(c1)OCCCO2 (racemic) [Example 54, N-(1,3-benzoxazol-2-yl(phenyl)methyl)-3,4-dihydro-2H-1,5-benzo dioxepine-7-sulfonamide] | 750 | 1100
2 | CCCc1ccccc1C(NS(=O)(=O)c1ccc2c(c1)OCCCO2)c1cc2ccccc2o1 (racemic) [Example 11, N-(1-benzofuran-2-yl(2-propylphenyl)methyl)-3,4-dihydro-2H-1,5-benzodioxepine-7-sulfonamide] | 1700 | 1800
3 | O=S(=O)(N[C@H](c1cc2ccccc2o1)c1ccccc1Cl)c1ccc2c(c1)OCCCO2 (single isomer, unassigned) [Example 20 Peak #1] | > 20000 | 5700
4 | O=S(=O)(NC(c1ccccc1)c1cc2cccc(Cl)c2s1)c1ccc2c(c1)OCCCO2 (racemic) [Example 72, N-((7-chloro-1-benzothiophen-2-yl)(phenyl)methyl)-3,4-dihydro-2H-1,5-benzodioxepine-7-sulfonamide] | 480 | 1000
5 | O=S(=O)(NC(c1ccccc1)c1cc2ncccc2s1)c1ccc2c(c1)OCCCO2 (racemic) [Example 61, N-(phenyl(thieno[3,2-b]pyridin-2-yl)methyl)-3,4-dihydro-2H-1,5-benzodioxepine-7-sulfonamide] | 2500 | 2300
6 | O=S(=O)(NC(c1ccccc1)c1cc2cccc(-c3ccccc3)c2s1)c1ccc2c(c1)OCCCO2 (racemic) [Example 73, N-(phenyl(7-phenyl-1-benzothiophen-2-yl)methyl)-3,4-dihydro-2H-1,5-benzodioxepine-7-sulfonamide] | 1000 | 1200
7 | O=S(=O)(NC(c1ccccc1)c1cc2cc(O)ccc2s1)c1ccc2c(c1)OCCCO2 (racemic) [Example 63, N-((5-hydroxy-1-benzothiophen-2-yl)(phenyl)methyl)-3,4-dihydro-2H-1,5-benzodioxepine-7-sulfonamide] | 3200 | 4200
8 | O=S(=O)(NC(c1cc2ccccc2o1)c1cccs1)c1ccc2c(c1)OCCCO2 (racemic) [Example 31, N-(1-benzofuran-2-yl(2-thiophenyl)methyl)-3,4-dihydro-2H-1,5-benzodioxepine-7-sulfonamide] | 740 | 3200
9 | CCc1ccccc1[C@H](NS(=O)(=O)c1ccc2c(c1)OCCCO2)c1cc2ccccc2o1 (single isomer, unassigned) [Example 6 Peak #1] | > 50000 | 4800
10 | O=S(=O)(NC(c1ccccc1)c1cc2ccncc2s1)c1ccc2c(c1)OCCCO2 (racemic) [Example 60, N-(phenyl(thieno[2,3-c]pyridin-2-yl)methyl)-3,4-dihydro-2H-1,5-benzodioxepine-7-sulfonamide] | 570 | 360
11 | O=S(=O)(N[C@@H](c1ccccc1)c1cc2ccccc2s1)c1ccc2c(c1)OCCCO2 (single isomer, unassigned) [Example 57 Peak #1] | 700 | 3000

The next molecules have a lower EC50 [1] than those just listed; values first:

Row | EC50 [1] [nM] | IC50 [2] [nM] | SMILES
12 | 72 | 47 | C#Cc1ccccc1C(NS(=O)(=O)c1ccc2c(c1)OCCCO2)c1cc2ccccc2o1 (racemic) [Example 8, N-(1-benzofuran-2-yl(2-ethynylphenyl)methyl)-3,4-dihydro-2H-1,5-benzodioxepine-7-sulfonamide]
13 | 87 | 1900 | O=S(=O)(N[C@H](c1ccccc1)c1cc2ccccc2s1)c1ccc2c(c1)OCCCO2 (single isomer, unassigned) [Example 57 Peak #2]
14 | 85 | 120 | Cc1cccnc1[C@@H](NS(=O)(=O)c1ccc2c(c1)OCCCO2)c1cc2ccccc2o1 (single isomer, unassigned) [Example 26 Peak #2]
15 | 160 | 300 | CCc1ccccc1C(NS(=O)(=O)c1ccc2c(c1)OCCCO2)c1cc2ccccc2s1 (racemic) [Example 37, N-(1-benzothiophen-2-yl(2-ethylphenyl)methyl)-3,4-dihydro-2H-1,5-benzodioxepine-7-sulfonamide]
16 | 130 | 360 | COc1ccccc1[C@H](NS(=O)(=O)c1ccc2c(c1)OCCCO2)c1cc2ccccc2s1 (single isomer, unassigned) [Example 40 Peak #1]
17 | 42 | 40 | O=S(=O)(N[C@@H](c1cc2ccccc2o1)c1ccccc1I)c1ccc2c(c1)OCCCO2 (single isomer, unassigned) [Example 21 Peak #2]
18 | 340 | 950 | CSc1ccccc1C(NS(=O)(=O)c1ccc2c(c1)OCCO2)c1cc2ccccc2s1 (racemic) [Example 75, N-(1-benzothiophen-2-yl(2-(methylsulfanyl)phenyl)methyl)-2,3-dihydro-1,4-benzodioxine-6-sulfonamide]
19 | 47 | 41 | COc1cccnc1C(NS(=O)(=O)c1ccc2c(c1)OCCCO2)c1cc2ccccc2s1 (racemic) [Example 43, N-(1-benzothiophen-2-yl(3-methoxy-2-pyridinyl)methyl)-3,4-dihydro-2H-1,5-benzodioxepine-7-sulfonamide]
20 | 120 | 350 | O=S(=O)(N[C@H](c1ccccc1)c1cc2cccc(-c3ccccn3)c2s1)c1ccc2c(c1)OCCCO2 (single isomer, unassigned) [Example 71 Peak #2]
21 | 40 | 110 | CCc1ccccc1[C@@H](NS(=O)(=O)c1ccc2c(c1)OCCCO2)c1cc2ccccc2o1 (single isomer, unassigned) [Example 6 Peak #2]
22 | 26 | 28 | COc1ccccc1[C@@H](NS(=O)(=O)c1ccc2c(c1)OCCCO2)c1cc2ccccc2s1 (single isomer, unassigned) [Example 40 Peak #2]
23 | 150 | 310 | COc1cccnc1C(NS(=O)(=O)c1ccc2c(c1)OCCCO2)c1cc2ccccc2o1 (racemic) [Example 30, N-(1-benzofuran-2-yl(3-methoxy-2-pyridinyl)methyl)-3,4-dihydro-2H-1,5-benzodioxepine-7-sulfonamide]
24 | 110 | 310 | O=S(=O)(NC(c1ccccc1)c1cc2ccccc2s1)c1ccc2c(c1)OCCCO2 (racemic) [Example 57, N-(1-benzothiophen-2-yl(phenyl)methyl)-3,4-dihydro-2H-1,5-benzodioxepine-7-sulfonamide]
25 | 17 | 7 | C[C@@](O)(c1ccnc(-c2cccc3cc([C@H](NS(=O)(=O)c4ccc5c(c4)OCCCO5)c4ccccc4)sc23)c1)C(F)(F)F (single isomer, unassigned) [Example 70 Peak #1]
26 | 190 | 420 | Cc1cccnc1C(NS(=O)(=O)c1ccc2c(c1)OCCCO2)c1cc2ccccc2o1 (racemic) [Example 26, N-(1-benzofuran-2-yl(3-methyl-2-pyridinyl)methyl)-3,4-dihydro-2H-1,5-benzodioxepine-7-sulfonamide]
